Columns and labels:
[1] = test system: HIV-1 in treatment naive patients; assay: Clinical study AI424-034, virological outcomes and resistance; format: in vivo, human; conditions: study 034
Excerpt: (§1) Study Population. Viral samples (baseline and on-treatment, where available) were obtained from patients who experienced virologic failure while enrolled in studies AI424-007/041 [12] (ATV+d4T and ddI), AI424-008/044 [13, 14] (ATV+d4T and 3TC) and AI424-034 [9] (ATV or EFV in combination with ZDV and 3TC). […] In general, virologic failure specimens were selected for further resistance evaluation only if they contained >1,000 copies/mL HIV-1 RNA and there was no indication that the specimen came from a patient at a time of transient non-adherence to study drug(s). […] For non-responders, samples from week 16 (or 24) were tested. Drug adherence was determined from pill counts of returned study medications at each scheduled visit.
ATV resistance was defined as ≧2-fold decrease in ATV susceptibility from baseline, a Fold Change (FC) of ≧2.5 (relative to the Nl4-3 reference strain), or evidence of an isoleucine (Ile) to leucine (Leu) change at amino acid residue 50 (I50L). Resistance levels for NFV and EFV were also defined as a FC reaching 2.5.

[2] = test system: clinical isolates containing an I50L substitution (and their baseline isolates); assay: PhenoSense phenotypic susceptibility of clinical isolates from ATV-treated patients who developed I50L; format: cell-based, HIV-1
Excerpt: as §1
Drug Susceptibility Assays. Clinical isolates were subjected to phenotypic (PhenoSense™) and genotypic (GeneSeq™) analysis by Virologic, Inc. as described elsewhere.

NL4-3 reference strain = assay: PhenoSense phenotypic drug susceptibility assay, reference strain; format: cell-based, HIV-1; conditions: Human immunodeficiency virus 1, NL43; over the several months of sample testing; read-out: IC50 measured for the NL4-3 reference strain
Procedure: Drug Susceptibility Assays. Clinical isolates were subjected to phenotypic (PhenoSense™) and genotypic (GeneSeq™) analysis by Virologic, Inc. as described elsewhere. Over the time period (several months) in which the samples reported here were tested, the ATV IC50 measured for the NL4-3 reference strain ranged from 0.9-2.0 nM. The success rate in obtaining phenotype and genotype results from patients experiencing virologic failure ranged from 30 to 50%, largely because of low HIV RNA levels (the assays used required levels of >=500 c/mL), insufficient sample volume, or no sample was available.

For `COC(=O)N[C@H](C(=O)N[C@@H](Cc1ccccc1)[C@@H](O)CN(Cc1ccc(-c2ccccn2)cc1)NC(=O)[C@@H](NC(=O)OC)C(C)(C)C)C(C)(C)C` [ATV, atazanavir], the “Virologic Failures (%)” value [1] was 17%, the “Virologic Failures, number” value [1] was 69 and the “median FC” value ([2]; I50L isolates, relative to NL4-3 reference strain) was 9.6 fold. The “Susceptibility, Fold Change in EC50 relative to reference strain” value ([2]; Isolate with I50L 1) was 3.5 Fold Change, the “Susceptibility, Fold Change in EC50 relative to reference strain” value ([2]; Isolate with I50L 2) was 4.9 Fold Change and the “Susceptibility, Fold Change in EC50 relative to reference strain” value ([2]; Isolate with I50L 3) was 5.2 Fold Change. For the same compound, the “Susceptibility, Fold Change in EC50 relative to reference strain” value ([2]; Isolate with I50L 4) was 5.8 Fold Change, the “Susceptibility, Fold Change in EC50 relative to reference strain” value ([2]; Isolate with I50L 5) was 6.7 Fold Change and the “Susceptibility, Fold Change in EC50 relative to reference strain” value ([2]; Isolate with I50L 6) was 7.9 Fold Change. The “Susceptibility, Fold Change in EC50 relative to reference strain” value ([2]; Isolate with I50L 7) was 8.6 Fold Change, the “Susceptibility, Fold Change in EC50 relative to reference strain” value ([2]; Isolate with I50L 8) was 8.8 Fold Change and the “Susceptibility, Fold Change in EC50 relative to reference strain” value ([2]; Isolate with I50L 9) was 9.5 Fold Change. The “Susceptibility, Fold Change in EC50 relative to reference strain” value ([2]; Isolate with I50L 10) was 10 Fold Change, the “Susceptibility, Fold Change in EC50 relative to reference strain” value ([2]; Isolate with I50L 11) was 11 Fold Change and the “Susceptibility, Fold Change in EC50 relative to reference strain” value ([2]; Isolate with I50L 12) was 12 Fold Change. The “Susceptibility, Fold Change in EC50 relative to reference strain” value ([2]; Isolate with I50L 13) was 13 Fold Change, the “Susceptibility, Fold Change in EC50 relative to reference strain” value ([2]; Isolate with I50L 14) was 19 Fold Change and the “Susceptibility, Fold Change in EC50 relative to reference strain” value ([2]; Isolate with I50L 15) was 22 Fold Change. For the same compound, the “Susceptibility, Fold Change in EC50 relative to reference strain” value ([2]; Isolate with I50L 16) was 29 Fold Change, the “Susceptibility, Fold Change in EC50 relative to reference strain” value ([2]; Subject 076, Week 80) was 9.5 Fold Change and the “Susceptibility, Fold Change in EC50 relative to reference strain” value ([2]; Subject 076, Week 92) was 16 Fold Change. For the same compound, the “Susceptibility, Fold Change in EC50 relative to reference strain” value ([2]; Subject 100, Week 1.7) was 1.5 Fold Change, the “Susceptibility, Fold Change in EC50 relative to reference strain” value ([2]; Subject 169, Week 0.1) was 1.1 Fold Change and the “Susceptibility, Fold Change in EC50 relative to reference strain” value ([2]; Subject 169, Week 90) was 12 Fold Change. The “Susceptibility, Fold Change in EC50 relative to reference strain” value ([2]; Subject 169, Week 102) was 9.2 Fold Change, the “Subceptibility, Fold Change in EC50 relative to reference strain” value ([2]; Subject 169, Week 114) was 13 Fold Change and the “Susceptibility, Fold Change in EC50 relative to reference strain” value ([2]; Subject 362, Week 0.1) was 1.3 Fold Change. For the same compound, the “Susceptibility, Fold Change in EC50 relative to reference strain” value ([2]; Subject 362, Week 108) was 12 Fold Change, the “median decrease in susceptibility from baseline” value ([2]; on emergence of I50L, n=15) was 9.6 fold and the FC ([2]; same isolate prior to developing the I50L change) was 0.2. The FC ([2]; the one I50L isolate with lowest FC, on treatment) was 1.5, the FC ([2]; three on treatment isolates containing I50I/L mixtures) was “below 1” and the “median FC” value ([2]; viruses containing the I50L substitution, FIG. 3) was “selective resistance”. It also gave an IC50 (NL4-3 reference strain) of 0.9 to 2 nM.

From US20050148523A1, “Method of treating HIV infection in atazanavir-resistant patients using a combination of atazanavir and another protease inhibitor” (priority 2003, published 2005)
